Experimental data as given in article PMC10982093, “Identifying and characterising promising small molecule inhibitors of kinesin spindle protein using ligand-based virtual screening, molecular docking, molecular dynamics and MM‑GBSA calculations” (Journal of Computer-Aided Molecular Design, 2024).

What was measured:
Eg5 ATPase = molecular target: T1, Eg5 ATPase (Homo sapiens, UniProt P52732); assay: Microtubule-activated Eg5 ATPase inhibition assay (Kinesin ELISA kit BK060); assay type: biochemical; settings: for inhibition at 10 µM: mean of 3 replicates
T1 construct: purchased Cytoskeleton, Inc BK060
T1 sequence (P52732 1-1056): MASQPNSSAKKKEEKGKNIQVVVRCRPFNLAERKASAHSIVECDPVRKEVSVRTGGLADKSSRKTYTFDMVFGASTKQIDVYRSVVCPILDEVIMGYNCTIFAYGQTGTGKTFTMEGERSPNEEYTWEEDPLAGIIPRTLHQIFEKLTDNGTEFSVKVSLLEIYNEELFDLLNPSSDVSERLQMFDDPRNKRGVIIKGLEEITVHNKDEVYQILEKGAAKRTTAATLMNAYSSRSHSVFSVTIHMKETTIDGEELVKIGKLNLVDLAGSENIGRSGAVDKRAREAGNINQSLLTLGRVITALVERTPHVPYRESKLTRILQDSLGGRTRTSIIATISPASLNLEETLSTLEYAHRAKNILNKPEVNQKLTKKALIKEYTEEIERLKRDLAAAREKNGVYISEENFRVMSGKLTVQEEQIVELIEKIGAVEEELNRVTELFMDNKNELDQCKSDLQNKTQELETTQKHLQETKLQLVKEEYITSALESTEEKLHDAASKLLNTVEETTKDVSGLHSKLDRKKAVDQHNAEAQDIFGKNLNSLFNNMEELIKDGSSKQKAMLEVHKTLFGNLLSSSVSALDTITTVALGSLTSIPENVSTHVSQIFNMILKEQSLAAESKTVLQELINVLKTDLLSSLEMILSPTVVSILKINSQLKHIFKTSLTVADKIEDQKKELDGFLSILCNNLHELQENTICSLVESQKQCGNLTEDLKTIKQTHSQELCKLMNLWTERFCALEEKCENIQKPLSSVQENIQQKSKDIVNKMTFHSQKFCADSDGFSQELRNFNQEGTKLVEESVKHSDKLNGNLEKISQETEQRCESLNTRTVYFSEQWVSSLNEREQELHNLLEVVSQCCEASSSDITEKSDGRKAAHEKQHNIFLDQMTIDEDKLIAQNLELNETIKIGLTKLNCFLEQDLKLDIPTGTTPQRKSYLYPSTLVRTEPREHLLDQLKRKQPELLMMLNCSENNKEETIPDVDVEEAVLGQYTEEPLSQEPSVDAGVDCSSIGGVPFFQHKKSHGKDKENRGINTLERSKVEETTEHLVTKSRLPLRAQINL
Description: Microtubule (MT)-activated enzymatic Eg5-ATPase activity were measured in order to evaluate the inhibitory activity of the selected compounds at […]. The MT—ATPase activity was analysed using Kinesin ELISA kit (BK060) (Cytoskeleton, Inc) and Monastrol was used as a control. The procedures were applied according to the manufacturer’s instructions. The IC50 of compound 5 which were required for inhibiting 50% of Eg5 ATPase activity was measured using ELISA kit (BK060) (Cytoskeleton, Inc, Denver, CO) according to the manufacturer’s instructions.
The Eg5 ATPase activity of the six hits at 10 µM was investigated in comparison to Monastrol (10 µM), as it acted as a positive control compound. […] Similarly compounds 1, 3 and 4 caused 40, 35 and 30% inhibition activity respectively.

Hela cells = assay: Immunofluorescence assay, inhibition of mitotic spindle formation; assay type: cell-based; settings: 10 µM, 24 h, tubulin immunofluorescence
Description: […] Monastrol was used as a positive control, while 0.1% DMSO was used as a negative control. The cells were rinsed with PBS, fixed with 3.7% paraformaldehyde, and permeabilized with 0.1% Triton X-100. The cells were blocked with 1% BSA in PBS for 1 h prior to incubation with anti-β-tubulin mouse monoclonal antibody (#86,298, Cell Signaling, San Francisco, CA, USA) overnight at 4 °C. The cells were washed with PBS for 1 h in the dark, and then incubated with Alexa Fluor® 488 secondary antibodies (Abcam).
Further investigation of compound 5 was performed, which consisted of an immunofluorescence assay that was used to analyse the mechanism of compound 5 on the organisation of the microtubules into mitotic spindles during divisions of the cells.

Eg5 protein = molecular target: Eg5 protein; parameters: method as in PMID 35251692; settings: read-out: Ki against Eg5 protein; cited from earlier work

| SMILES | inhibition at 10 µM (Eg5 ATPase) [%] | also measured |
| --- | --- | --- |
| Cn1c(=O)[nH]c(=O)c2c1nc(NCCCn1ccnc1)n2Cc1ccc2ccccc2c1 [Compound 5, 8-(3-(1H-imidazol-1-yl)propylamino)-3-methyl-7-((naphthalen-3-yl)methyl)-1H-purine-2,6(3H,7H)-dione] | 50 | IC50 (Eg5 ATPase; read-out: IC50 against Eg5 ATPase): 2370 ± 150 nM; Mitotic spindle morphology (Hela cells): monopolar spindle profiles |
| COc1ccc(C(=O)N2c3ccc(OC(=O)c4ccco4)cc3C(C)=CC2(C)C)cc1 [Compound 2, 1-(4-methoxybenzoyl)-2,2,4-trimethyl-1,2-dihydroquinolin-6-yl furan-2-carboxylate] | ~25 | – |
| O=C1CCc2cc(-c3ccc(C(F)(F)F)cc3)ccc2N1 [GSK-1] | – | Ki (Eg5 protein): 1.8 nM |
| CS(=O)(=O)c1ccc(CNc2nc3cc(C(=O)O)ccc3n2Cc2ccccc2C(F)(F)F)cc1 [Compound 6, 1-(2-(trifluoromethyl)benzyl)-2-(4-(methylsulfonyl)benzylamino)-1H-benzo[d]imidazole-5-carboxylic acid] | ~25 | – |
| CCOC(=O)C1=C(C)NC(=S)NC1c1cccc(O)c1 (stereo not drawn) [Monastrol, reference compound] | 60 | Mitotic spindle morphology (Hela cells): monopolar spindle profiles |
| COc1cc2nc(-c3cc(-c4ccccc4Cl)nc4ccccc34)[nH]c2cc1OC [Compound 3, 2-(2-chlorophenyl)-4-(5,6-dimethoxy-1H-benzo[d]imidazol-2-yl)quinoline] | 35 | – |
| NC(=O)Nc1ccc(-c2ccc(C(F)(F)F)cc2)cc1F [GSK-2] | – | Ki (Eg5 protein): 8.8 nM |
| COc1ccc(CNc2nc3cc(C(=O)O)ccc3n2Cc2ccccc2C(F)(F)F)cc1 [Compound 1, 1-(2-(trifluoromethyl)benzyl)-2-(4-methoxybenzylamino)-1H-benzo[d]imidazole-5-carboxylic acid] | 40 | – |
| Cc1ccc(O)c(C(=O)c2cnc3c(c2)c(-c2ccc(F)cc2)c(C#N)c(=O)n3C)c1 [Compound 4, 4-(4-fluorophenyl)-6-(2-hydroxy-5-methylbenzoyl)-1-methyl-2-oxo-1,8-naphthyridine-3-carbonitrile] | 30 | – |
